# In patent US20100247659A1, “PHENYLPHTHALIMIDE ANALOGS FOR TREATING DIABETIC MACULAR EDEMA” (Charlesson, LLC, priority 2007, published 2010):
# Test system: normal BN rats
# Assay: Ocular toxicity, histological analysis of the retina
# Format: in vivo, rat
# Settings: 2 μg/eye intravitreal, 4 weeks
# Experimental: Histological analysis of the retina: To test the potential ocular toxicity of Compound 4, 8 week old normal BN rats received an intravitreal injection of Compound 4 (2.0 μg/eye, 5 μl/eye of 0.4 mg/ml in BN rat serum) or equal amount of BN rat serum, respectively. At various intervals after injection, the animals were sacrificed. The eyes then were removed, fixed in 4% formaldehyde, embedded in paraffin, and cut into 6-μm sections containing the whole retina. Paraffin-embedded sections were stained with hematoxylin-eosin (HE) and were examined.
# Possible toxicities of CLT-033 were also examined using pathohistological examination 4 weeks after the drug administration. Retinal cross sections stained with H&E were examined under a light microscope.
# Eight weeks old BN rats were received an intravitreal injection of Compound 4 (2.0 μg/eye, 5 μl/eye 0.4 mg/ml in BN rat serum) or equal amount of BN rat serum respectively (n=6). ERG was performed prior to study initiation and 1, 2, 3 and 4 weeks after the injection. Data shown no dramatic change in the a-wave and b-wave amplitudes in Compound 4-injected rats compared to vehicle-injected rats (FIG. 18A-18C). The animals were sacrificed 4 weeks after injection. The eye sections were observed under microscope with HE staining.
compound,measurement,value
CC(C)c1cccc(C(C)C)c1N1C(=O)c2ccc(N)cc2C1=O [Compound 4],"retinal morphology, H&E sections",No apparent morphological change or immunoresponse
